Measured values: patent US12350308B2, “Phosphorylcholine conjugates and uses thereof” (TPCERA LTD., priority 2013, dated 2025)
Where no end group is shown, it is not given here.

Assays:
Type in all cases: in vivo
[1] = test system: splenocytes of lupus mice; assay: Cytokine mRNA in splenocytes of lupus mice treated with PC-tuftsin (real time RT-PCR); details: normalized to β-actin; vs PBS
Experimental: (§1) Mice, from age of 14 weeks, received subcutaneously PC-tuftsin at the concentration of 50 μg/0.1 ml per mouse (treatment; n=10) or PBS (control; n=10), three times a week. In the cytokines studies, the relative mRNA expression levels of pro-inflammatory cytokine IFNγ and anti-inflammatory cytokine TGFβ were analyzed by real time RT-PCR using LightCycler (Roche). Total RNA was isolated from splenocytes and was reverse-transcribed into cDNA by using Moloney Murine Leukemia Virus Reverse Transcriptase (Promega). The resulting cDNA was subjected to real-time RT-PCR in the presence of specific primers, according to the manufacturer's instructions (Table 2). The relative expression levels of IFNγ and TGFβ were normalized to β-actin levels.

Tregs CD4+CD25+FOXP3+ = assay: T regulatory cell profiling by FACS in splenocytes of lupus mice (PC-tuftsin study); details: PBS 4±0.6 percent
Experimental: as §1
Finally, a T regulatory cell (Tregs) profiling assay was performed in isolated splenocytes incubated with the following antibodies: anti-CD4^+FITC, anti-CD25^+APC and anti-FOXP3^+PE (eBioscience) and analyzed by FACS. Forward and side scatter gates adjusted to include all cells and to exclude debris (Becton Dickinson). Cells were gated on CD4+ cells, and for intracellular staining, the cells were incubated with a fixation solution, washed and resuspended in permeabilization solution (Serotec). Isotype control was used as reference.

NZBXW/F1 mice [2] = assay: Kidney morphology in lupus mice treated with PC-tuftsin (PAS, immunofluorescence); details: 50 μg/0.1 ml s.c. 3 times a week
Experimental: The effect of PC-tuftsin on the morphology of kidneys was determined in a lupus mouse model as in Examples 2. Kidney section obtained from kidneys of mice sacrificed after treatments were paraffin embedded. PAS staining was used to detect pathology of nephritis. Immunofluorescence staining was used for detecting immune complex deposits. The latter was implemented by incubating the paraffin embedded sections with FITC-conjugated-anti-mouse-IgG. Evaluation was performed by a pathologist.
Mice, from age of 14 weeks, received subcutaneously PC-tuftsin at the concentration of 50 μg/0.1 ml per mouse (treatment; n=10) or PBS (control; n=10), three times a week.

male C57BL/6 mice = assay: DSS induced acute colitis in mice; details: even after day 12
Experimental: The effect of PC-tuftsin derivative (SEQ ID NO: 25) on colitis development was determined in a mouse model subjected to induction of acute colitis by dextran sulfate sodium (DSS) treatment. Specifically, induction of colitis was carried out in male C57BL/6 mice (“colitis mice”) by supplementing the drinking water (2.5% wt/v) for five days with DSS (mol. wt. 36,000-50,000).
Two groups of mice were fed daily via oral ingestion using a feeding-needle, with PC-tuftsin derivative at a concentration of 500 μg/0.1 ml per mouse (treatment; n=10), or PBS (control; n=10). These compounds were given during 11 days starting two days before DSS administration.
Assessment of colitis development was performed by monitoring body weight, rectal bleeding, stool consistency, and survival every second day. Intestinal bleeding was followed by Hemoccult test and observation of bleeding signs on the anus or gross bleeding. The daily disease activity index (DAI) was calculated by grading on a scale of zero to four the following parameters: change in weight (0, <1%; 1, 1-5%; 2, 5-10%; 3, 10— 15%; and 4, >15%), intestinal bleeding (0, negative; 4, positive), and stool consistency (0, normal; 2, loose stools; 4, diarrhea). The combined scores were then divided by three to obtain the final disease activity index. Ten days following disease induction, mice were sacrificed and the large intestine was collected and evaluated for colon length and microscopic colonic damage. For microscopic scoring, the proximal, medial, and distal portions of the colon and the cecum were fixed in 10% phosphate-buffered formalin. Paraffin-embedded sections were stained with H&E. The degree of histological damage and inflammation was graded in a blinded fashion by an expert pathologist

[3] = test system: splenocytes of lupus mice; assay: Secreted cytokine protein of splenocytes of lupus mice treated with PC-tuftsin (DuoSet); details: splenocytes incubated 72 hours
Experimental: as §1
Splenocytes protein level of anti-inflammatory cytokines TGFβ, and IL-10 and pro-inflammatory cytokines IFNγ, and IL-17 were quantified by DuoSet (R&D Systems), according to the manufacturer's instructions. Briefly, spleens from mice treated with PC-tuftsin or PBS were harvested, splenocytes were isolated (5×10^6/ml) and incubated for 72 hours and thereafter assessed for contents of secreted cytokines.

NZBXW/F1 mice [4] = assay: Proteinuria in lupus mice treated with PC-tuftsin (Multistix); details: 50 μg/0.1 ml s.c. 3 times a week from 14 weeks; vs PBS
Experimental: The effect of PC-tuftsin (TPC) on proteinuria was determined in a mouse model for lupus, specifically, female NZBXW/F1 mice that develop lupus on a genetic background. Proteinuria levels were measured using Multistix (Bayer Diagnostics). This type of measurement is typically used in the clinic for assessing manifestation of lupus nephritis. Lupus nephritis is an inflammation of the kidney caused by systemic lupus erythematosus (SLE).
The mice, from age of 14 weeks, received subcutaneously PC-tuftsin at the concentration of 50 μg/0.1 ml per mouse (treatment; n=10) or PBS (control; n=10), three times a week. Proteinuria was defined as having a protein level of above 100 mg/dl in the urine.

PC-tuftsin: PC conjugated to tuftsin (threonine-lysine-proline-arginine, TKPR; SEQ ID NO: 17) using 4-aminophenylphosphorylcholine (also: phosphorylcholine conjugated via 4-aminophenylphosphorylcholine, site not given here)
relative mRNA expression of IFNγ in splenocytes [1]: significantly reduced | relative mRNA expression of TGFβ in splenocytes [1]: significantly enhanced | enhancement in Tregs CD4+CD25+FOXP3+ expression level (Tregs CD4+CD25+FOXP3+): 18±2% | pathology of nephritis (PAS staining) (NZBXW/F1 mice [2]): did not display any pathology of nephritis | immune complex deposits in the glomeruli (NZBXW/F1 mice [2]; vs PBS): very mild immune complex deposits | mice still alive (male C57BL/6 mice): 100% | increase in protein level of IL-10 ([3]; vs PBS): 4.8 | increase in protein level of TGFβ ([3]; vs PBS): 5.1 | reduction of IFNγ concentration ([3]; vs control): 5.2 fold | reduction of IL-17 concentration ([3]; vs control): 2.7 fold | proteinuria (protein level above 100 mg/dl) (NZBXW/F1 mice [4]): significant attenuation
